25 compounds from patent publication US10851099B2, “Dipeptide piperidine derivatives” (OncoArendi Therapeutics S.A., priority 2018, dated 2020) can be followed below.

Counter-ions that a name gives are not always drawn.

For this assay, the target named is T1, recombinant human arginase 1 (Homo sapiens, UniProt P05089).
T1 construct: made in house; host or cells: E. coli
T1 sequence (P05089 1-322): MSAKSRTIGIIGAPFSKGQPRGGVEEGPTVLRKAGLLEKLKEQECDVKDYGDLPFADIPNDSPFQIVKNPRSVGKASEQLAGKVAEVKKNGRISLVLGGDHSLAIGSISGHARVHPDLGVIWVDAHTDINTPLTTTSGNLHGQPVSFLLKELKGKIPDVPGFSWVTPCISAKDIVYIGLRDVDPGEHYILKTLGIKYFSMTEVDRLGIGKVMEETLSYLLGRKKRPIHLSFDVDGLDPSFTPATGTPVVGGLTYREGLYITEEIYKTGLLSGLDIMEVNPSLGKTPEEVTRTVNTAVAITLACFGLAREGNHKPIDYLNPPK
Nature of the assay: Human arginase inhibition assay (colorimetric urea detection), arginase 1. The class given is biochemical. As to conditions: IC50 class, hydrochloride salts, 1 h at 37° C., pH 7.4, 10 mM L-arginine, 200 μM MnCl2, read-out: Activity Class (ARG I). How it is done:
The inhibitory activities of the compounds of the invention were assessed using recombinant human arginase 1 and 2. Both enzymes were biosynthesized using a prokaryotic expression system (E. coli) and purified by fast protein liquid chromatography (FPLC). The compounds were screened in 96-well plates at the total reaction volume of 100 μL. Briefly, recombinant enzymes were incubated with the tested compounds for 1 h at 37° C. in the reaction buffer (100 mM sodium phosphate buffer, 130 mM NaCl, 1 mg/mL BSA, pH 7.4) containing substrate (10 mM L-arginine hydrochloride) and cofactor (200 μM MnCl2). The assay is based on the detection of urea, which is generated during the conversion of L-arginine into L-ornithine catalyzed by ARG1 or ARG2. The colorimetrically detectable product was developed by adding a mixture of reagent A (4 mM oPA, 50 mM boric acid, 1 M sulfuric acid, 0.03% Brij-35) and reagent B (4 mM NED, 50 mM boric acid, 1 M sulfuric acid, 0.03% Brij-35) in equal proportions. The absorbance for each well was measured at 515 nm and the enzyme inhibition was calculated. The urea production in the absence of any tested compound was considered as maximal enzyme activity. The absorbance at the absence of arginase (background) was subtracted from all the values. Normalized values were analyzed using GraphPad Prism 7.0 software by plotting inhibition curves and determining the IC50 values.
The inhibitory activity toward humane arginase 1 of the hydrochloride salts of the exemplary compounds according to the invention is presented in Table 5.
Turning to `C[C@H](N)C(=O)N1C[C@H](CCB(O)O)C[C@@](N)(C(=O)O)C1` [Example 2, (3S,5R)-1-(L-Alanyl)-3-amino-5-(2-boronoethyl)piperidine-3-carboxylic acid dihydrochloride], the IC50 is more than 10000 nM.
Consider `N[C@]1(C(=O)O)C[C@H](CCB(O)O)CN(C(=O)[C@@H]2CCCN2)C1` [Example 4, (3R,5S)-1-(L-Prolyl)-3-amino-5-(2-boronoethyl)piperidine-3-carboxylic acid dihydrochloride], for which the IC50 was 250 to 499 nM.
With `CC(C)[C@H](N)C(=O)N1C[C@@H](CCB(O)O)C[C@](N)(C(=O)O)C1` [Example 5, (3R,5S)-1-(L-Valyl)-3-amino-5-(2-boronoethyl)piperidine-3-carboxylic acid dihydrochloride], the IC50 was 250 to 499 nM.
For the compound `CC(C)C[C@H](N)C(=O)N1C[C@@H](CCB(O)O)C[C@](N)(C(=O)O)C1` [Example 8, (3R,5S)-1-(L-Leucyl)-3-amino-5-(2-boronoethyl)piperidine-3-carboxylic acid dihydrochloride], the IC50 lay within 500 to 999 nM.
With `CC[C@H](C)[C@H](N)C(=O)N1C[C@@H](CCB(O)O)C[C@](N)(C(=O)O)C1` [Example 9, (3R,5S)-1-(L-Isoleucyl)-3-amino-5-(2-boronoethyl)piperidine-3-carboxylic acid dihydrochloride], the IC50 lay in the range of 500 to 999 nM.
On to `N[C@@H](Cc1ccc(O)cc1)C(=O)N1C[C@@H](CCB(O)O)C[C@](N)(C(=O)O)C1` [Example 10, (3R,5S)-1-(L-Tyrosyl)-3-amino-5-(2-boronoethyl)piperidine-3-carboxylic acid dihydrochloride], for which the IC50 was in the range of 250 to 499 nM.
In the case of `C[C@@H](O)[C@H](N)C(=O)N1C[C@@H](CCB(O)O)C[C@](N)(C(=O)O)C1` [Example 12, (3R,5S)-1-(L-Threonyl)-3-amino-5-(2-boronoethyl)piperidine-3-carboxylic acid dihydrochloride], the IC50 was 250 to 499 nM.
Next, `N[C@@H](CC(=O)O)C(=O)N1C[C@@H](CCB(O)O)C[C@](N)(C(=O)O)C1` [Example 14, (3R,5S)-1-(L-Aspartyl)-3-amino-5-(2-boronoethyl)piperidine-3-carboxylic acid dihydrochloride]: 500 to 999 nM; `N[C@@H](CCC(=O)O)C(=O)N1C[C@@H](CCB(O)O)C[C@](N)(C(=O)O)C1` [Example 15, (3R,5S)-1-(L-Glutamyl)-3-amino-5-(2-boronoethyl)piperidine-3-carboxylic acid dihydrochloride]: 500 to 999 nM.
Turning to `NC(=O)CC[C@H](N)C(=O)N1C[C@@H](CCB(O)O)C[C@](N)(C(=O)O)C1` [Example 16, (3R,5S)-1-(L-Glutaminyl)-3-amino-5-(2-boronoethyl)piperidine-3-carboxylic acid dihydrochloride], the IC50 lay in the range of 250 to 499 nM.
With `CSCC[C@H](N)C(=O)N1C[C@@H](CCB(O)O)C[C@](N)(C(=O)O)C1` [Example 17, (3R,5S)-1-(L-Methionyl)-3-amino-5-(2-boronoethyl)piperidine-3-carboxylic acid dihydrochloride] the figure was 250 to 499 nM.
Next, `N[C@@H](Cc1c[nH]c2ccccc12)C(=O)N1C[C@@H](CCB(O)O)C[C@](N)(C(=O)O)C1` [Example 18, (3R,5S)-1-(L-Tryptophyl)-3-amino-5-(2-boronoethyl)piperidine-3-carboxylic acid dihydrochloride]: 250 to 499 nM; `N[C@@H](CS)C(=O)N1C[C@@H](CCB(O)O)C[C@](N)(C(=O)O)C1` [Example 19, (3R,5S)-1-(L-Cysteinyl)-3-amino-5-(2-boronoethyl)piperidine-3-carboxylic acid dihydrochloride]: 500 to 999 nM.
For `NC(=O)NCCC[C@H](N)C(=O)N1C[C@@H](CCB(O)O)C[C@](N)(C(=O)O)C1` [Example 21, (3R,5S)-3-Amino-1-((S)-2-amino-5-ureidopentanoyl)-5-(2-boronoethyl) piperidine-3-carboxylic acid dihydrochloride], the IC50 fell in the range of 250 to 499 nM.
In the case of `NCCC[C@H](N)C(=O)N1C[C@@H](CCB(O)O)C[C@](N)(C(=O)O)C1` [Example 22, (3R,5S)-3-Amino-5-(2-boronoethyl)-1-((S)-2,5-diaminopentanoyl)piperidine-3-carboxylic acid trihydrochloride], the IC50 was in the range of 250 to 499 nM.
With `C[C@@H](N)C(=O)N1C[C@@H](CCB(O)O)C[C@](N)(C(=O)O)C1` [Example 23, (3R,5S)-1-(D-Alanyl)-3-amino-5-(2-boronoethyl)piperidine-3-carboxylic acid dihydrochloride], the IC50 lay within 1000 to 10000 nM.
Regarding `Cn1cc(C[C@@H](N)C(=O)N2C[C@@H](CCB(O)O)C[C@](N)(C(=O)O)C2)c2ccccc21` [Example 24, (3R,5S)-3-amino-5-(2-boronoethyl)-1-(1-methyl-D-tryptophyl)piperidine-3-carboxylic acid dihydrochloride], the IC50 lay within 500 to 999 nM.
Next, `CCC[C@H](N)C(=O)N1C[C@@H](CCB(O)O)C[C@](N)(C(=O)O)C1` [Example 25, (3R,5S)-3-Amino-1-((S)-2-aminopentanoyl)-5-(2-boronoethyl)piperidine-3-carboxylic acid dihydrochloride]: 250 to 499 nM; `NC(=O)C[C@H](N)C(=O)N1C[C@@H](CCB(O)O)C[C@](N)(C(=O)O)C1` [Example 26, (3R,5S)-1-(L-Asparaginyl)-3-amino-5-(2-boronoethyl)piperidine-3-carboxylic acid dihydrochloride]: 250 to 499 nM; `CNCC(=O)N1C[C@@H](CCB(O)O)C[C@](N)(C(=O)O)C1` [Example 27, (3R,5S)-3-Amino-5-(2-boronoethyl)-1-(methylglycyl)piperidine-3-carboxylic acid dihydrochloride]: 250 to 499 nM.
Next, `COC(=O)[C@@]1(N)C[C@H](CCB(O)O)CN(C(=O)[C@H](C)N)C1` [Example 28, (2-((3S,5R)-1-(L-Alanyl)-5-amino-5-(methoxycarbonyl)piperidin-3-yl)ethyl) boronic acid dihydrochloride]: more than 10000 nM; `N=C(N)NCCC[C@H](N)C(=O)N1C[C@@H](CCB2OC(=O)CC(CC(=O)O)(C(=O)O)O2)C[C@](N)(C(=O)O)C1` (stereo partly drawn) [Example 29, (3R,5S)-1-(L-Arginyl)-3-amino-5-(2-(4-carboxy-4-(carboxymethyl)-6-oxo-1,3,2-dioxaborinan-2-yl)ethyl)piperidine-3-carboxylic acid trihydrochloride]: 1 to 249 nM; `C[C@@H]1N(C(=O)[C@@H](N)CCCNC(=N)N)C[C@@H](CCB(O)O)C[C@]1(N)C(=O)O` [Example 31, (2S,3R,5S)-1-(L-Arginyl)-3-amino-5-(2-boronoethyl)-2-methylpiperidine-3-carboxylic acid trihydrochloride]: 250 to 499 nM.
Next, `C[C@H](N)C(=O)N1C[C@H](CCB(O)O)C[C@](N)(C(=O)O)C1` [Example 32, (3R,5R)-1-(L-Alanyl)-3-amino-5-(2-boronoethyl)piperidine-3-carboxylic acid dihydrochloride]: more than 10000 nM; `C[C@H](N)C(=O)N1C[C@@H](CCB(O)O)C[C@@](N)(C(=O)O)C1` [Example 33, (3S,5S)-1-(L-Alanyl)-3-amino-5-(2-boronoethyl)piperidine-3-carboxylic acid dihydrochloride]: more than 10000 nM.
